Measurements: patent publication EP2181708A1, “Use of Valproate for reducing CHOP levels, particularly in a mammal having SCI” (Universitat Autonoma de Barcelona, priority 2008, dated 2010)

Tests used:
Assay type in all cases: in vivo, Sprague-Dawley rats
[1] = test system: axons; experiment: Immunohistochemistry of axons (RT97 neurofilament, 5-HT) after SCI
Experimental: (§1) Adult females Sprague-Dawley rats aged 11 weeks (220-250 g) were anesthetized with pentobarbital (40 mg/kg i.p.). When unresponsive, the vertebral column was exposed and a laminectomy carried out at T8-T9 levels. Rostral T7 and caudal T10 vertebral bodies were clamped with Adson stabilizing forceps, and carefully adjusted to level the spinal cord in the horizontal plane. A contusion injury was performed using the Infinite Horizon impactor device (Precision Scientific Instruments, Lexington, KY). The stainless steel impounder tip was placed at 3-4 mm above the exposed spinal cord, and then a fast impact produced applying forces of 150 or 250 kilodynes (KDyn) to the exposed spinal cord. The wound was sutured with 5-0 silk thread in the muscular plane and the skin was closed with small clips and disinfected with povidone iodine solution. Sham-operated animals received the same surgical procedure but sustained no impact injury; the spinal cord was left exposed for 5 min. The animals were maintained in a warm environment until full recovery, and received preventive antibiotic (amoxicyline) and analgesic (buprenorphine) treatment. All animals were kept under standard conditions of light and temperature and fed with food and water ad libitum. […]

[2] = test system: P-eIF2α; experiment: Western blot of phospho-eIF2α in spinal cord after contusion SCI; conditions: whether higher in VPA-treated injured spinal cords than in vehicle-treated ones
Experimental: as §1, with “min.” for “min. The animals were maintained in a warm environment until full recovery, and received preventive antibiotic (amoxicyline) and analgesic (buprenorphine) treatment. All animals were kept under standard conditions of light and temperature and fed with food and water ad libitum.”
Rats were re-anesthetised and decapitated at 3 dpo for sample preparation. […] After clearance, protein concentration was measured by the BCA method assay (BCA Protein Assay kit, Pierce). […] The membrane was visualized by enhanced chemiluminiscence (ECL) method and the images analyzed with Gene Snap and Gene Tools software, and Gene Genome apparatus (Syngene). […]

[3] = test system: oligodendrocytes, astrocytes; experiment: Immunohistochemistry of glia (CC1/APC oligodendrocytes, GFAP astrocytes) after SCI
Experimental: as §1

## CCCC(CCC)C(=O)O [VPA, 2-propylpentanoic acid]
[1]; anti-neurofilament antibody RT97, rostral and caudal to the lesion
  density of axonal profiles: increased density
[1]; rostral and caudal to the lesion
  number of serotonin (5-HT)-positive axons: increased
[2]
  levels of P-eIF2α: not
[3]; 35 dpo
  total GFAP immunoreactivity in astrocytes: no significant alterations
[3]; CC1 antibody, 1 and 2 mm caudal to the epicentre, vs vehicle
  proportion of oligodendrocytes: markedly increased
